What is called IC50 is the midpoint of a concentration-inhibition curve.

In this assay the target is mTOR/GbL/Raptor (mTORC1) (Homo sapiens, UniProt P42345). Nature of the assay: mTOR/GbL/Raptor (mTORC1) ELISA assay. The format is biochemical. The conditions noted are these: phosphorylation of 4E-BP1; 0.2 nM mTORC1, 10 μM ATP; read-out: IC50 in this assay (mTORC1 ELISA). A digest of the protocol: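 Human mTORC1 (0.2 nM) phosphorylated 50 nM His-tagged 4E-BP1 with 10 µM ATP in HEPES pH 7.2 containing 10 mM MnCl2, 120 min at ambient temperature. Substrate was captured on Ni-chelate plates; phospho-4E-BP1 was detected by primary antibody and HRP secondary with luminescence.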
In general terms: An ELISA detects its analyte on a solid surface through an enzyme-linked reagent.
On to `CN(C)S(=O)(=O)c1cncc(-c2ccc3c(c2)CN(c2ncnc4c2CC(C)(C)CC4)CCO3)c1` [Example 521, 5-[4-(6,6-dimethyl-5,6,7,8-tetrahydroquinazolin-4-yl)-2,3,4,5-tetrahydro-1,4-benzoxazepin-7-yl]-N,N-dimethylpyridine-3-sulfonamide], for which the IC50 lay within 250 to 1000 nM.

On to `CC1(C)CCc2ncnc(N3CCOc4ccc(-c5cncc(S(N)(=O)=O)c5)cc4C3)c2C1` [Example 522, 5-[4-(6,6-dimethyl-5,6,7,8-tetrahydroquinazolin-4-yl)-2,3,4,5-tetrahydro-1,4-benzoxazepin-7-yl]pyridin-3-sulfonamide], for which the IC50 is 250 to 1000 nM.

With `CC1(C)CCc2ncnc(N3CCOc4ccc(-c5cnc(N)nc5)cc4C3)c2C1` [Example 523, 5-[4-(6,6-dimethyl-5,6,7,8-tetrahydroquinazolin-4-yl)-2,3,4,5-tetrahydro-1,4-benzoxazepin-7-yl]pyrimidin-2-amine], the IC50 lay in the range of 50 to 250 nM.

In the case of `COc1ccc2c(N3CCOc4ccc(-c5ccc6c(c5)CC(=O)N6)cc4C3)nc(C)nc2c1` [Example 524, 5-{4-[2-methyl-7-(methyloxy)quinazolin-4-yl]-2,3,4,5-tetrahydro-1,4-benzoxazepin-7-yl}-1,3-dihydro-2H-indol-2-one], the 50% inhibitory concentration (IC50) is 1000 to 2000 nM.

As for `Cc1nc2ncc(-c3ccc4c(c3)CN(c3ncnc(NC(C)C)c3C)CCO4)cc2[nH]1` [Example 525, 5-methyl-N-(1-methylethyl)-6-[7-(2-methyl-1H-imidazo[4,5-b]pyridin-6-yl)-2,3-dihydro-1,4-benzoxazepin-4(5H)-yl]pyrimidin-4-amine], the IC50 was 250 to 1000 nM.

On to `CN(C)Cc1nc2c(c(N3CCOc4ccc(-c5cnc6sc(N)nc6c5)cc4C3)n1)CC(C)(C)CC2` [Example 526, 6-(4-{2-[(dimethylamino)methyl]-6,6-dimethyl-5,6,7,8-tetrahydroquinazolin-4-yl}-2,3,4,5-tetrahydro-1,4-benzoxazepin-7-yl)[1,3]thiazolo[5,4-b]pyridin-2-amine], for which the IC50 was in the range of 10 to 50 nM.

Regarding `COc1ccc2c(N3CCOc4ccc(-c5cnc6sc(N)nc6c5)cc4C3)nc(CN(C)C)nc2c1` [Example 527, 6-(4-{2-[(dimethylamino)methyl]-7-(methyloxy)quinazolin-4-yl}-2,3,4,5-tetrahydro-1,4-benzoxazepin-7-yl)[1,3]thiazolo[5,4-b]pyridin-2-amine], the IC50 lay within 250 to 1000 nM.

Take `Cc1nc(Nc2ccccc2)c(C)c(N2CCOc3ccc(-c4ccc5nc[nH]c5c4)cc3C2)n1` [Example 529, 6-[7-(1H-benzimidazol-6-yl)-2,3-dihydro-1,4-benzoxazepin-4(5H)-yl]-2,5-dimethyl-N-phenylpyrimidin-4-amine]: the IC50 was in the range of 250 to 1000 nM.

Turning to `Cc1nc(Nc2ccccc2)c(C)c(N2CCOc3ccc(-c4cnc5nc[nH]c5c4)cc3C2)n1` [Example 530], the IC50 is 10 to 50 nM.

In the case of `Cc1c(NC2CCN(C)CC2)ncnc1N1CCOc2ccc(-c3cnc4nc(C5CC5)[nH]c4c3)cc2C1` [Example 531, 6-[7-(2-cyclopropyl-1H-imidazo[4,5-b]pyridin-6-yl)-2,3-dihydro-1,4-benzoxazepin-4(5H)-yl]-5-methyl-N-(1-methylpiperidin-4-yl)pyrimidin-4-amine], the IC50 lay in the range of 250 to 1000 nM.

Consider `Cc1c(NC2CCOCC2)ncnc1N1CCOc2ccc(-c3cnc4nc(C5CC5)[nH]c4c3)cc2C1` [Example 532, 6-[7-(2-cyclopropyl-1H-imidazo[4,5-b]pyridin-6-yl)-2,3-dihydro-1,4-benzoxazepin-4(5H)-yl]-5-methyl-N-(tetrahydro-2H-pyran-4-yl)pyrimidin-4-amine], for which the IC50 is 250 to 1000 nM.

In the case of `Cc1c(NCC2CCN(C)CC2)ncnc1N1CCOc2ccc(-c3cnc4nc(C5CC5)[nH]c4c3)cc2C1` [Example 533, 6-[7-(2-cyclopropyl-1H-imidazo[4,5-b]pyridin-6-yl)-2,3-dihydro-1,4-benzoxazepin-4(5H)-yl]-5-methyl-N-[(1-methylpiperidin-4-yl)methyl]pyrimidin-4-amine], the IC50 is at least 2000 nM.

For the compound `Cc1c(NCCC2CCCN2C)ncnc1N1CCOc2ccc(-c3cnc4nc(C5CC5)[nH]c4c3)cc2C1` (stereo not drawn) [Example 534, 6-[7-(2-cyclopropyl-1H-imidazo[4,5-b]pyridin-6-yl)-2,3-dihydro-1,4-benzoxazepin-4(5H)-yl]-5-methyl-N-[2-(1-methylpyrrolidin-2-yl)ethyl]pyrimidin-4-amine], the IC50 lay within 1000 to 2000 nM.

Regarding `Cc1c(N2CCOc3ccc(-c4cnc5nc(C6CC6)[nH]c5c4)cc3C2)ncnc1N(C)[C@@H](C)c1ccccc1` [Example 536, 6-[7-(2-cyclopropyl-1H-imidazo[4,5-b]pyridin-6-yl)-2,3-dihydro-1,4-benzoxazepin-4(5H)-yl]-N,5-dimethyl-N-[(1S)-1-phenylethyl]pyrimidin-4-amine], the IC50 is 50 to 250 nM.

As to `CC[C@H]1CCc2c(ncnc2N2CCOc3ccc(-c4cnc5nc(N)[nH]c5c4)cc3C2)C1` [Example 537, 6-{4-[(7S)-7-ethyl-5,6,7,8-tetrahydroquinazolin-4-yl]-2,3,4,5-tetrahydro-1,4-benzoxazepin-7-yl}-1H-imidazo[4,5-b]pyridin-2-amine], the 50% inhibitory concentration (IC50) is at most 10 nM.

In the case of `CCNc1nc2ccc(-c3ccc4c(c3)CN(c3nc(C)nc(Nc5ccccc5)c3C)CCO4)cc2[nH]1` [Example 538, 6-{4-[2,5-dimethyl-6-(phenylamino)pyrimidin-4-yl]-2,3,4,5-tetrahydro-1,4-benzoxazepin-7-yl}-N--ethyl-1H-benzimidazol-2-amine], the IC50 lay within 50 to 250 nM.

For the compound `COc1ccc2c(N3CCOc4ccc(-c5ccc6nc(N)[nH]c6c5)cc4C3)nc(C)nc2c1` [Example 539, 6-{4-[2-methyl-7-(methyloxy)quinazolin-4-yl]-2,3,4,5-tetrahydro-1,4-benzoxazepin-7-yl}-1H-benzimidazol-2-amine], the concentration for half-maximal inhibition (IC50) fell in the range of 50 to 250 nM.

On to `Cc1c(Nc2ccccc2)ncnc1N1CCOc2ccc(-c3cnc4nc(N)[nH]c4c3)cc2C1` [Example 540, 6-{4-[5-methyl-6-(phenylamino)pyrimidin-4-yl]-2,3,4,5-tetrahydro-1,4-benzoxazepin-7-yl}-1H-imidazo[4,5-b]pyridin-2-amine], for which the IC50 lay in the range of 10 to 50 nM.

Regarding `c1cc(N2CCOc3ccc(-c4ccc5nc[nH]c5c4)cc3C2)ncn1` [Example 541, 7-(1H-benzimidazol-6-yl)-4-pyrimidin-4-yl-2,3,4,5-tetrahydro-1,4-benzoxazepine], the IC50 was at least 2000 nM.

In the case of `COc1ccc2c(N3CCOc4ccc(-c5cnc6nc[nH]c6c5)cc4C3)nc(C)nc2c1` [Example 542, 7-(1H-imidazo[4,5-b]pyridin-6-yl)-4-[2-methyl-7-(methyloxy)quinazolin-4-yl]-2,3,4,5-tetrahydro-1,4-benzoxazepine], the IC50 is 50 to 250 nM.

In the case of `c1cc(N2CCOc3ccc(-c4cnc5nc[nH]c5c4)cc3C2)ncn1` [Example 543, 7-(1H-imidazo[4,5-b]pyridin-6-yl)-4-pyrimidin-4-yl-2,3,4,5-tetrahydro-1,4-benzoxazepine], the IC50 was 1000 to 2000 nM.

Turning to `Cc1nc2c(c(N3CCOc4ccc(-c5cnc6nc(C7CC7)[nH]c6c5)cc4C3)n1)CC(C)(C)CC2` [Example 544, 7-(2-cyclopropyl-1H-imidazo[4,5-b]pyridin-6-yl)-4-(2,6,6-trimethyl-5,6,7,8-tetrahydroquinazolin-4-yl)-2,3,4,5-tetrahydro-1,4-benzoxazepine], the concentration for half-maximal inhibition (IC50) is at most 10 nM.

As to `CC1(C)C=Cc2ncnc(N3CCOc4ccc(-c5cnc6nc(C7CC7)[nH]c6c5)cc4C3)c2C1` [Example 545, 7-(2-cyclopropyl-1H-imidazo[4,5-b]pyridin-6-yl)-4-(6,6-dimethyl-5,6-dihydroquinazolin-4-yl)-2,3,4,5-tetrahydro-1,4-benzoxazepine], the IC50 was at most 10 nM.

For the compound `C[C@H]1CCc2c(ncnc2N2CCOc3ccc(-c4cnc5nc(C6CC6)[nH]c5c4)cc3C2)C1` [Example 546, 7-(2-cyclopropyl-1H-imidazo[4,5-b]pyridin-6-yl)-4-[(7S)-7-methyl-5,6,7,8-tetrahydroquinazolin-4-yl]-2,3,4,5-tetrahydro-1,4-benzoxazepine], the IC50 fell in the range of 50 to 250 nM.

Take `Cc1nc(C)c(CC2CC2)c(N2CCOc3ccc(-c4cnc5nc(C6CC6)[nH]c5c4)cc3C2)n1` [Example 547, 7-(2-cyclopropyl-1H-imidazo[4,5-b]pyridin-6-yl)-4-[5-(cyclopropylmethyl)-2,6-dimethylpyrimidin-4-yl]-2,3,4,5-tetrahydro-1,4-benzoxazepine]: the IC50 lay within 10 to 50 nM.

Take `CCc1nc2ncc(-c3ccc4c(c3)CN(c3nc(C)nc5c3CC(C)(C)CC5)CCO4)cc2[nH]1` [Example 548, 7-(2-ethyl-1H-imidazo[4,5-b]pyridin-6-yl)-4-(2,6,6-trimethyl-5,6,7,8-tetrahydroquinazolin-4-yl)-2,3,4,5-tetrahydro-1,4-benzoxazepine]: the IC50 is at most 10 nM.

Regarding `Cc1nc2c(c(N3CCOc4ccc(-c5cnc6nc(C)[nH]c6c5)cc4C3)n1)CC(C)(C)CC2` [Example 550, 7-(2-methyl-1H-imidazo[4,5-b]pyridin-6-yl)-4-(2,6,6-trimethyl-5,6,7,8-tetrahydroquinazolin-4-yl)-2,3,4,5-tetrahydro-1,4-benzoxazepine], the IC50 was at most 10 nM.

Regarding `Cc1nc2ncc(-c3ccc4c(c3)CN(c3ncnc(N5CCOCC5)c3C)CCO4)cc2[nH]1` [Example 551], the IC50 was in the range of 250 to 1000 nM.

As for `CC1=C(C)C(C)(C)Cc2c1ncnc2N1CCOc2ccc(-c3cnc4nc(C)[nH]c4c3)cc2C1` [Example 552, 7-(2-methyl-1H-imidazo[4,5-b]pyridin-6-yl)-4-(6,6,7,8-tetramethyl-5,6-dihydroquinazolin-4-yl)-2,3,4,5-tetrahydro-1,4-benzoxazepine], the concentration for half-maximal inhibition (IC50) is at most 10 nM.

For the compound `CC1=Cc2ncnc(N3CCOc4ccc(-c5cnc6nc(C)[nH]c6c5)cc4C3)c2CC1(C)C` [Example 553], the IC50 is at most 10 nM.

For the origin of these results see patent US8648066B2 (Exelixis, Inc., priority 2009, dated 2014).
